US7125990B2, “Imidazolyl derivatives as corticotropin releasing factor inhibitors” (Bristol-Myers Squibb COmpany, priority 2001, dated 2006)

target: T1, CRF1 receptors (Homo sapiens, UniProt P34998); assay: CRF1 receptor radioligand binding assay ([125I]-oCRF competition, IMR-32 cell membranes); conditions: IMR-32 cell membranes, [125I]-oCRF 100 pM; read-out: Ki (CRF-1R)
T1 construct: endogenous in cells; host or cells: IMR-32 cells, transformed with 2.5 µM 5'-bromo-2'-deoxyuridine for 10 days; membrane preparation
T1 sequence (P34998 24-415): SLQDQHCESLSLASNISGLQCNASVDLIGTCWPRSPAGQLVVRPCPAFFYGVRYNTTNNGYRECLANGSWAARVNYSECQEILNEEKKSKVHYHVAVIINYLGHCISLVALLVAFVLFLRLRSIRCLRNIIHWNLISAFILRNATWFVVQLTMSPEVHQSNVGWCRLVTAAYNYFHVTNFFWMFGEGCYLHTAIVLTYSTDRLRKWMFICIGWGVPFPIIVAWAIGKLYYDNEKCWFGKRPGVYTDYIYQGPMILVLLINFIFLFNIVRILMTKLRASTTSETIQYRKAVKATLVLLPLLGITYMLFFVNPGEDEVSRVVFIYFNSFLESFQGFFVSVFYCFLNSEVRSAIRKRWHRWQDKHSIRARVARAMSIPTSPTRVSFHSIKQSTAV
Protocol: CRF1 receptor antagonists, by occupying the same receptors, blocks the accessibility of the receptors to CRF, a hypothalamic factor mediating body's responses to physiological and psychological stress. The following radioligand binding assay examines the ability of the antagonists to bind the CRF1 receptors by assessing their ability to compete with binding of CRF to the receptors in cell membrane.
Tissue culture and membrane preparation. IMR-32 cells were grown at 37° C. in 5% CO2 as a monolayer in medium consisting of MEM supplemented with 10% heat-inactivated fetal bovine serum, 0.1 mM nonessential amino acids, 1 mM sodium pyruvate and 2 mM L-glutamine. […] After transformation, cells were rinsed twice with phosphate-buffered saline, and incubated for 10–15 min. at 4° C. in homogenization buffer consisting of 50 mM Tris (pH 7.2), 10 mM MgCl2 and 2 mM EGTA. Cells were transferred from plates to polypropylene tubes (16×100 mm), homogenized and centrifuged at 32,000×g for 15 min. Pellets were resuspended by homogenization in buffer and centrifuged at 32,000×g for 15 min. Pellets were resuspended in homogenization buffer then stored at −80° C. until needed.
Radioligand binding assays. […] The assay buffer consisted of 50 mM Tris (pH 7.2), 10 mM MgCl2, 0.5% BSA, 0.005% Triton X-100, 10 μg/mL aprotinin and 10 μg/mL leupeptin. Assays were stopped by addition of ice-cold wash buffer (50 mM Tris, pH 7.4 and 0.2% BSA). Filtration over glass fiber filters (Whatman GF/B) previously soaked in 50 mM Tris, pH 7.2 and 1% BSA was carried out using a Brandel cell harvester. Filters were washed with 10 mL of ice-cold wash buffer. Non-specific binding was defined with 10 μM oCRF. IC50 values for oCRF and test compounds were calculated by nonlinear regression using a one-site binding curve (GraphPad Prism).

Row | Compound | Ki [µM]
1 | CCCN(CC1CC1)C(=O)c1c(C(F)(F)F)nc2n1CCCN2c1c(C)cc(C)cc1C [Example 55, 2-Trifluoromethyl-8-(2,4,6-trimethyl-phenyl)-5,6,7,8-tetrahydro-imidazo[1,2a]pyrimidine-3-carboxylic acid cyclopropylmethyl-propyl-amide] | < 10
2 | CCCN(CC1CCC1)C(=O)c1c(C)nc2n1CCCN2c1c(C)cc(C)cc1C [Example 57, 2-Methyl-8-(2,4,6-trimethyl-phenyl)-5,6,7,8-tetrahydro-imidazo[1,2-a]pyrimidine-3-carboxylic acid cyclobutylmethyl-propyl-amide] | < 10
3 | Cc1cc(C)c(N2CCCn3c2nc(C)c3C(=O)N(CC2CC2)CC2CC2)c(C)c1 [Example 58, 2-Methyl-8-(2,4,6-trimethyl-phenyl)-5,6,7,8-tetrahydro-imidazo[1,2-a]pyrimidine-3-carboxylic acid bis-cyclopropylmethyl-amide] | < 10
4 | Cc1cc(C)c(N2CCCn3c2nc(C(F)(F)F)c3CN2CCSCC2)c(C)c1 [Example 61, 3-Thiomorpholin-4-ylmethyl-2-trifluoromethyl-8-(2,4,6-trimethyl-phenyl)-5,6,7,8-tetrahydro-imidazo[1,2-a]pyrimidine] | < 1
5 | Cc1cc(C)c(N2CCCn3c2nc(C(F)(F)F)c3CN2CCCCC2)c(C)c1 [Example 62, 3-Piperidin-1-ylmethyl-2-trifluoromethyl-8-(2,4,6-trimethyl-phenyl)-5,6,7,8-tetrahydro-imidazo[1,2-a]pyrimidine] | < 1
6 | Cc1cc(C)c(N2CCCn3c2nc(C(F)(F)F)c3CN2CCCCC2C)c(C)c1 (centres unmarked) [Example 63, 3-(2-Methyl-piperidin-1-ylmethyl)-2-trifluoromethyl-8-(2,4,6-trimethyl-phenyl)-5,6,7,8-tetrahydro-imidazo[1,2-a]pyrimidine] | < 1
7 | Cc1cc(C)c(N2CCCn3c2nc(C(F)(F)F)c3CN2CCC(C)CC2)c(C)c1 [Example 64, 3-(4-Methyl-piperidin-1-ylmethyl)-2-trifluoromethyl-8-(2,4,6-trimethyl-phenyl)-5,6,7,8-tetrahydro-imidazo[1,2-a]pyrimidine] | < 1
8 | Cc1cc(C)c(N2CCCn3c2nc(C(F)(F)F)c3CN(CC2CC2)CC(F)(F)F)c(C)c1 [Example 73, Cyclopropylmethyl-(2,2,2-trifluoro-ethyl)-[2-trifluoromethyl-8-(2,4,6-trimethyl-phenyl)-5,6,7,8-tetrahydro-imidazo[1,2-a]pyrimidin-3-ylmethyl]-amine] | < 0.01
9 | Cc1cc(C)c(N2CCCn3c2nc(C(F)(F)F)c3CN(CC2CC2)CC(F)(F)C(F)(F)F)c(C)c1 [Example 74, Cyclopropylmethyl-(2,2,3,3,3-pentafluoro-propyl)-[2trifluoromethyl-8-(2,4,6-trimethyl-phenyl)-5,6,7,8-tetrahydro-imidazo[1,2-a]pyrimidin-3-ylmethyl]-amine] | < 0.1
10 | Cc1cc(C)c(N2CCCn3c2nc(C(F)(F)F)c3CN(CC2CCC2)CC(F)(F)F)c(C)c1 [Example 76, Cyclobutylmethyl-(2,2,2-trifluoro-ethyl)-[2-trifluoromethyl-8-(2,4,6-trimethyl-phenyl)-5,6,7,8-tetrahydro-imidazo[1,2-a]pyrimidin-3-ylmethyl]-amine] | < 0.1
11 | CCCN(Cc1c(C(F)(F)F)nc2n1CCCN2c1c(C)cc(C)cc1C)CC(F)(F)C(F)(F)F [Example 80, (2,2,3,3,3-Pentafluoro-propyl)-propyl-[2-trifluoromethyl-8-(2,4,6-trimethyl-phenyl)-5,6,7,8-tetrahydro-imidazo[1,2-a]pyrimidin-3-ylmethyl]-amine] | < 1

The next lines start with the values.

Row | Ki [µM] | Compound
12 | < 10 | CCCN(CCc1ccccc1)C(=O)c1c(C)nc2n1CCCN2c1c(C)cc(C)cc1C [Example 56, 2-Methyl-8-(2,4,6-trimethyl-phenyl)-5,6,7,8-tetrahydro-imidazo[1,2-a]pyrimidine-3-carboxylic acid phenethyl-propyl-amide]
13 | < 0.1 | CCCN(Cc1c(C(F)(F)F)nc2n1CCCN2c1c(C)cc(C)cc1C)CC1CC1 [Example 59, Cyclopropylmethyl-propyl-[2-trifluoromethyl-8-(2,4,6-trimethyl-phenyl)-5,6,7,8-tetrahydro-imidazo[1,2-a]pyrimidin-3-ylmethyl]-amine]
14 | < 1 | Cc1cc(C)c(N2CCCn3c2nc(C(F)(F)F)c3CN2CC=CCC2)c(C)c1 [Example 60, 3-(3,6-Dihydro-2H-pyridin-1-ylmethyl)-2-trifluoromethyl-8-(2,4,6-trimethyl-phenyl)-5,6,7,8-tetrahydro-imidazo[1,2-a]pyrimidine]
15 | < 1 | Cc1cc(C)c(N2CCCn3c2nc(C(F)(F)F)c3CN(C)Cc2ccccc2)c(C)c1 [Example 65, Benzyl-methyl-[2-trifluoromethyl-8-(2,4,6-trimethyl-phenyl)-5,6,7,8-tetrahydro-imidazo[1,2-a]pyrimidin-3-ylmethyl]-amine]
16 | < 1 | Cc1cc(C)c(N2CCCn3c2nc(C(F)(F)F)c3CN(C)CCc2ccccc2)c(C)c1 [Example 66, Methyl-phenethyl-[2-trifluoromethyl-8-(2,4,6-trimethyl-phenyl)-5,6,7,8-tetrahydro-imidazo[1,2-a]pyrimidin-3-ylmethyl]-amine]
17 | < 0.1 | C=CCN(CC=C)Cc1c(C(F)(F)F)nc2n1CCCN2c1c(C)cc(C)cc1C [Example 67, Diallyl-[2-trifluoromethyl-8-(2,4,6-trimethyl-phenyl)-5,6,7,8-tetrahydro-imidazo[1,2-a]pyrimidin-3-ylmethyl]-amine]
18 | < 1 | CCCN(CCC)Cc1c(C(F)(F)F)nc2n1CCCN2c1c(C)cc(C)cc1C [Example 68, Dipropyl-[2-trifluoromethyl-8-(2,4,6-trimethyl-phenyl)-5,6,7,8-tetrahydro-imidazo[1,2-a]pyrimidin-3-ylmethyl]-amine]
19 | < 1 | CCCCN(C)Cc1c(C(F)(F)F)nc2n1CCCN2c1c(C)cc(C)cc1C [Example 69, Butyl-methyl-[2-trifluoromethyl-8-(2,4,6-trimethyl-phenyl)-5,6,7,8-tetrahydro-imidazo[1,2-a]pyrimidin-3-ylmethyl]-amine]
20 | < 1 | CCCCN(CC)Cc1c(C(F)(F)F)nc2n1CCCN2c1c(C)cc(C)cc1C [Example 70, Butyl-ethyl-[2-trifluoromethyl-8-(2,4,6-trimethyl-phenyl)-5,6,7,8-tetrahydro-imidazo[1,2-a]pyrimidin-3-ylmethyl]-amine]
21 | < 0.1 | C=C(C)CN(CC)Cc1c(C(F)(F)F)nc2n1CCCN2c1c(C)cc(C)cc1C [Example 71, Ethyl-(2-methyl-allyl)-[2-trifluoromethyl-8-(2,4,6-trimethyl-phenyl)-5,6,7,8-tetrahydro-imidazo[1,2-a]pyrimidin-3-ylmethyl]-amine]
22 | < 1 | Cc1cc(C)c(N2CCCn3c2nc(C(F)(F)F)c3CN2CCC(c3ccccc3)C2)c(C)c1 (centres unmarked) [Example 72, 3-(3-Phenyl-pyrrolidin-1-ylmethyl)-2-trifluoromethyl-8-(2,4,6-trimethyl-phenyl)-5,6,7,8-tetrahydro-imidazo[1,2-a]pyrimidine]
23 | < 0.1 | CCN(Cc1c(C(F)(F)F)nc2n1CCCN2c1c(C)cc(C)cc1C)CC1CC1 [Example 75, Cyclopropylmethyl-ethyl-[2-trifluoromethyl-8-(2,4,6-trimethyl-phenyl)-5,6,7,8-tetrahydro-imidazo[1,2-a]pyrimidin-3-ylmethyl]-amine]
24 | < 0.1 | CCCN(Cc1c(C(F)(F)F)nc2n1CCCN2c1c(C)cc(C)cc1C)CC1CCC1 [Example 77, Cyclobutylmethyl-propyl-[2-trifluoromethyl-8-(2,4,6-trimethyl-phenyl)-5,6,7,8-tetrahydro-imidazo[1,2-a]pyrimidin-3-ylmethyl]-amine]
25 | < 1 | CCCN(CCC(F)(F)F)Cc1c(C(F)(F)F)nc2n1CCCN2c1c(C)cc(C)cc1C [Example 78, Propyl-[2-trifluoromethyl-8-(2,4,6-trimethyl-phenyl)-5,6,7,8-tetrahydro-imidazo[1,2-a]pyrimidin-3-ylmethyl]-(3,3,3-trifluoro-propyl)-amine]
26 | < 0.1 | CCCN(Cc1c(C(F)(F)F)nc2n1CCCN2c1c(C)cc(C)cc1C)CC(F)(F)F [Example 79, Propyl-(2,2,2-trifluoro-ethyl)-[2-trifluoromethyl-8-(2,4,6-trimethyl-phenyl)-5,6,7,8-tetrahydro-imidazo[1,2-a]pyrimidin-3-ylmethyl]-amine]
